Patent publication US5770565A, “Peptides for reducing or inhibiting bone resorption” (priority 1994, dated 1998)
Where a SMILES comes first, the peptide text is derived from it. Bridges are numbered along the chain shown (N, C = ends). [ ]: non-standard residue; d: D form. Tic = O=C(O)[C@@H]1Cc2ccccc2CN1; Pen = CC(C)(S)[C@H](N)C(=O)O; Mpa = O=C(O)CCS

Key:
[1] = tested on: αV β3 integrin, osteoclasts; assay: series of assays of Example II for potency and selectivity (summary, FIG. 2)
Description: Peptides of the RGDNTic (SEQ ID NO: 56) pharmacophore group are characterized, in general, as having increased potency, whereas the peptides of the pharmacophore RGDDV (SEQ ID NO: 1) group generally have higher receptor selectivity. […] As used herein, the term "potency" or "potent" means that a peptide of the invention is active at a relatively low concentration in the assays described in Examples II and III. A potent peptide of the invention can be identified, for example, using the assays described in Examples II and III.
Selectivity can be due, for example, to the ability of a peptide of the invention to bind to αV β3 with greater affinity than it binds to other integrins. Thus, in addition to having selectivity, for example, for osteoclast binding to a matrix, a peptide of the invention also can display receptor selectivity and, therefore, more specifically alter receptor-mediated binding to a matrix. As used herein, the term "receptor selectivity" means that a peptide of the invention can bind to one receptor with greater affinity than it can bind to another receptor.

Swiss-Webster mice = assay: PTH-induced hypercalcemia assay; type: in vivo; conditions: peptide infused 4 hr at various doses, 0.2 mg PTH/kg i.v., FIG. 9
Description: Parathyroid hormone (PTH) activates osteoclasts, which are involved in bone resorption. Associated with the increased osteoclast activity is an increase in serum calcium. The PTH-induced hypercalcemia assay measures the level of serum calcium, which is an indication of bone resorption in a subject (Fischer et al., Endocrinology 132:1411-1413 (1993), which is incorporated herein by reference).
Swiss-Webster mice, which had been parathyroidectomized two weeks prior to beginning the assay, were obtained from Taconic Lab Animals and Services (Germantown N.Y.). Femoral vein catheters (PE-50 fused with PE10 polyethylene tubing; Becton Dickinson; Parsippany, N.J.) were installed in the mice, flushed and locked with heparinized saline (1:10), sutured to adjacent muscle and internalized within the inguinal space of the incision before closing the incision with wound clips. […]
The experiment was initiated by feeding the mice a calcium-deficient diet overnight, then injecting the mice the following morning with a bolus of 0.2 mg PTH/kg (hPTH 1-34; Bachem; Torrance Calif.), intravenously. […] Various doses of a peptide or vehicle were infused into an animal for 4 hr, then ionized serum calcium again was measured. […] Serum calcium measurements were expressed as the difference between the value 30 min before the PTH pulse and 4 hr after peptide infusion was started. […]

α5 β1 (FnR) = target: T1, α5 β1 (FnR) (Homo sapiens, UniProt P05556+P08648); assay: α5 β1 ELISA (competitive receptor binding); conditions: receptor ELISAs compared
T1 construct: Fibronectin receptor (FnR) was purified from 100 mM octyl-glucopyranoside-extracted human placenta; from tissue; host or cells: human placenta
Protocol: (§1) Peptide binding to purified human αV β5 and αV β3, which are VnR's, and to α5 β1, which is a FnR, was determined using competitive ELISA assays as described below.
Peptide binding to purified human α5 β1 (FnR) also was determined using a competitive ELISA. In these assays, Fn was immobilized to the wells and the binding of solubilized FnR in the presence of various concentrations of a peptide analogue was determined using a mouse monoclonal antibody to human β1 (clone P4C10; Gibco) and specific binding was visualized using a second antibody.
Microtiter wells were coated at RT by adding 100 μl of 2 μg/ml human Fn in TBS and incubating the plates overnight at 4° C. Following incubation, the plates were washed 3× with TBS/"TWEEN-20". RGD peptides were diluted in TBS containing 20 mM OG and 2 mM MnCl2 and 50 μl was added to wells at 10-fold serial dilutions. FnR was diluted in the same buffer and 50 μl was added to each well.
The plates were incubated for 3 hr at RT and washed with 300 μl TBS/"TWEEN-20". Bound receptor was incubated with 100 μl of the monoclonal anti-β1 antibody for 2 hr, then washed 3× with TBS/"TWEEN-20". […] The amount of bound second antibody was determined as described above.
The IC50 values for various RGD peptides were calculated by determining the concentration of a peptide that inhibited binding of Vn to αV β5 or αV β3 or of Fn to α5 β1 by 50%. […]

αV β3 receptor = target: T2, αV β3 receptor (Homo sapiens, UniProt P05106+P06756); assay: αV β3 ELISA (competitive receptor binding); conditions: receptor ELISAs compared
T2 construct: The αV β3 receptor was purified from octylglucopyranoside-extracted human placenta; from tissue; host or cells: human placenta
Protocol: as §1
Peptide binding to purified αV β3 receptor was determined by using a competitive ELISA, in which αV β3 receptor was immobilized and the binding of solubilized VN, in the presence of various concentrations of peptide analogue, was detected using a monoclonal mouse IgG anti-VN antibody and a labelled anti-mouse IgG conjugate. A monoclonal anti-VN antibody can be obtained using routine methods (see, for example, Harlow and Lane, Antibodies: A laboratory manual (Cold Spring Harbor Laboratory Press 1988), which is incorporated herein by reference).
96 well microtiter plates were coated overnight at RT with 100 μl/well of αV β3 receptor (0.5 μg/ml in 1×TBS, 4 mM octylglucoside, 1 mM CaCl2). The wells were blocked with 200 μl/well of 1% BSA in 1×TBS, 1 mM CaCl2 for at least 30 min. The plates were washed 2× with 1×TBS, 1 mM CaCl2. 50 μl peptide in 1×TBS, 1 mM CaCl2, 0.05% "TWEEN 20" polyoxyethylenesorbitan monolaurate was added in 10-fold serial dilutions. 50 μl of Vn in the same buffer then was added to each well.
The plates were incubated for 3 hr at RT, then washed 3× with 1×TBS, 0.05% "TWEEN 20" polyoxyethylenesorbitan monolaurate. […] The plates were read at 490 nm and the data analyzed by four parameter fit. […]

[2] = half-life of peptide in serum; conditions: in vivo
Description: Increased stability of a disulfide bonded peptide of the invention also can be conferred by incorporating a hydrophobic amino acid residue such as phenylalanine at position X1 or X8 or both X1 and X8 in an RGDNTic (SEQ ID NO: 56) or RGDDV (SEQ ID NO: 1) pharmacophore as disclosed herein. The presence of such a residue can stabilize the disulfide bond against enzymatic degradation (see Bauer et al., Life Sciences 31:1133-1140 (1982)). […] In addition, the half-life of a peptide in a subject can be determined, for example, by high performance liquid chromatography (HPLC) of serum samples collected from the subject at various times following administration of the peptide. One skilled in the art would know how to select appropriate elution buffers for HPLC based on the physico-chemical properties of a particular peptide.

osteoclasts = conditions: cited from earlier work

CC(C)[C@@H]1NC(=O)[C@H](CC(=O)O)NC(=O)[C@H](CC(=O)O)NC(=O)CNC(=O)[C@H](CCCNC(=N)N)NC(=O)[C@H](C)NC(=O)[C@H](CCCNC(=N)N)NC(=O)[C@@H](NC(=O)CN)C(C)(C)SSC[C@@H](C(=O)N[C@@H](C)C(=O)O)NC1=O [compound 138] (H-G[Pen]RARGDDVCA-OH; disulfide 2-10)
potency and selectivity together (summary classification) [1]: both potent and selective
receptor selectivity (summary classification) [1]: particularly receptor selective

C[C@@H]1NC(=O)[C@H](C)NC(=O)[C@@H](NC(=O)CN)C(C)(C)SSC[C@@H](C(N)=O)NC(=O)[C@H]([C@@H](C)O)NC(=O)[C@H](CC(=O)O)NC(=O)[C@H](CC(=O)O)NC(=O)CNC(=O)[C@H](CCCNC(=N)N)NC1=O [compound 186] (H-G[Pen]AARGDDTC-NH2; disulfide 2-10)
receptor selectivity (summary classification) [1]: particularly receptor selective

CC(C)[C@@H]1NC(=O)[C@H](CC(=O)O)NC(=O)[C@H](CC(=O)O)NC(=O)CNC(=O)[C@H](CCCNC(=N)N)NC(=O)CCSSC[C@@H](C(N)=O)NC1=O [compound 191] ([Mpa]RGDDVC-NH2; disulfide 1-7)
effect on PTH-induced rise in serum ionized calcium (Swiss-Webster mice): decreased the PTH-induced rise in serum ionized calcium in a dose responsive manner

CC(=O)N[C@H]1CSSC(C)(C)[C@@H](C(N)=O)NC(=O)[C@@H]2CCCN2C(=O)[C@H](CC(N)=O)NC(=O)[C@H](CC(=O)O)NC(=O)CNC(=O)[C@H](CCCNC(=N)N)NC1=O [compound 228] (Ac-CRGDNP[Pen]-NH2; disulfide 1-7)
receptor selectivity (summary classification) [1]: particularly receptor selective

C[C@H](NC(=O)[C@@H]1CSSC(C)(C)[C@H](NC(=O)CN)C(=O)N[C@@H](C)C(=O)N[C@@H](C)C(=O)N[C@@H](CCCNC(=N)N)C(=O)NCC(=O)N[C@@H](CC(=O)O)C(=O)N[C@@H](CC(N)=O)C(=O)N2CCC[C@H]2C(=O)N1)C(=O)O [compound 310] (H-G[Pen]AARGDNPCA-OH; disulfide 2-10)
selectivity toward α5 β1 versus αV β5 (α5 β1 (FnR)): more selective toward α5 β1 than toward αV β5

CC(=O)N[C@H]1CSSC[C@@H](C(N)=O)NC(=O)[C@@H]2Cc3ccccc3CN2C(=O)[C@H](CO)NC(=O)[C@H](CC(=O)O)NC(=O)CNC(=O)[C@H](CCCNC(=N)N)NC1=O [compound 812, Ac-CRGDS(Tic)Cs-NH2] (Ac-CRGDS[Tic]C-NH2; disulfide 1-7)
potency (summary classification) [1]: particularly potent
activity of peptides with minimally essential elements ([1]; FIG. 2): demonstrate activity

CC(=O)N[C@@H]1C(=O)N[C@@H](Cc2ccccc2)C(=O)N[C@@H](C)C(=O)N[C@@H](CCCNC(=N)N)C(=O)NCC(=O)N[C@@H](CC(=O)O)C(=O)N[C@@H](CC(N)=O)C(=O)N2CCC[C@H]2C(=O)N[C@H](C(N)=O)CSSC1(C)C [peptide 214] (Ac-[Pen]FARGDNPC-NH2; disulfide 1-9)
relative affinity for αV β3, α5 β1 and αV β5 (αV β3 receptor): higher affinity for αV β3 and α5 β1 than for αV β5
potency (summary classification) [1]: particularly potent

CC(=O)N[C@@H](Cc1ccccc1)C(=O)N[C@H]1CSSC[C@@H](C(N)=O)NC(=O)[C@H](Cc2ccccc2)NC(=O)[C@H]([C@@H](C)O)NC(=O)[C@H](CC(=O)O)NC(=O)CNC(=O)[C@H](CCCNC(=N)N)NC1=O [peptide 220] (Ac-FCRGDTFC-NH2; disulfide 2-8)
half-life in serum [2]: relatively long

Echistatin
binding to osteoclasts (osteoclasts): nonselective
